According to patent USRE44543E1, “Naphthalenic compounds as termite bait toxicants” (priority 2002, dated 2013):

Assays:
Formosan termites = assay: Foraging box bait matrix bioassay, NHA sodium salt (Example 1); assay type: in vivo, Coptotermes formosanus; details: 6 boxes of 2500 termite workers
Description: (§1) For bait matrices with a final concentrations of NHA sodium salt of either 250 ppm or 500 ppm, the following procedure was used. A total of 25 mg or 50 mg, respectively of the NHA sodium salt was weighed using a Mettler balance. The NHA sodium salt complex was placed into a 50 ml sterile screw cap conical tube (#62.547.004; Sarstedt, Newton, N.C.) and dissolved with 40 ml nutritive solution described in Example 2 of U.S. patent application Ser. No. 09/294,499 filed Apr. 20, 1999, hereby incorporated by reference. Under a laminar flow hood, this product was mixed with 27 ml more of sterile nutritional supplement in a 250 ml sterile glass bottle (prepared as reported by M. G. Rojas and J. A. Morales-Ramos, April 2001, “Bait matrix for delivery of chitin synthesis inhibitors to the Formosan subterranean termite [Isoptera: Rhinotermitidae],” J. Econ. Entomol. 94(2) :506-510) hereby incorporated by reference. The bottle was tightly closed with a screw cap and manually shaken for 2 minutes. The mixture was added to 33 g of sterile cellulose as reported by Rojas and Morales-Ramos (2001) supra. The mixture was manually homogenized using a stainless steel spatula. To encase the bait matrix, tubes made of fibrous casing material (#124B; L.E.M. Products, Inc., Miamitown, Ohio) were cut into 150 mm long portions as reported by Rojas and Morales-Ramos (2001) supra. Fifty grams of bait matrix containing NHA sodium salt was compacted into one end of the inlet tube, and the open end and of the inlet tube was closed with a rubber band. The bait casing was placed inside of the foraging box adjacent to a 10 g piece of pine wood, taking care that it was partially covered with sand. Control bait matrix was prepared minus NHA, and presented in the same way as the treatment matrix to Formosan termites taken from three different colonies, with two boxes per locality totaling six boxes of 2500 termites per treatment. (Rojas and Morales-Ramos [2001] supra). All the experimental boxes were maintained under dark conditions at 27±1° C., and 90±2% relative humidity. Observations were done every 72 hours until all the termites died. The time to reach 100% mortality was measured and recorded. Mean comparisons among treatments and control were conducted.

C. formosanus [1] = assay: ARS bait matrix bioassay with NHA sodium salt, protocol of Example 1 (Example 2); assay type: in vivo, Coptotermes formosanus
Description: as §1
N-hydroxynaphthyalimide (NHA) which is commercially available as pure chemical, is dissolved in distilled water using a sterile container; At concentrations of 500 ppm, NHA is effective as bait active ingredient taking a mean time to kill C. formosanus in 2½ months in lab conditions. […]

C. formosanus [2] = details: low toxicity baits; cited from earlier work
Reticulitermes spp. = details: low toxicity baits; cited from earlier work
termites [3] = assay: Copper naphthenate laboratory study, ARS bait matrix in foraging boxes; assay type: in vivo, Coptotermes formosanus
Description: as §1
Copper naphthenate (Product No. PS-2028, Chem Service, West Chester, Pa.) was dissolved in 90% warm ethanol at 3 different concentrations of 50, 100 and 200 ppm. The ethanol solution was mixed with the liquid part of the ARS bait matrix (see Example 2) and bait was prepared and presented to the termites as above in Example 1 having 4 repetitions per dose and a control. It was observed that at 50 ppm of chemical, all termites in 50% of the boxes died at about 8 weeks; and termites in 75% of the boxes died at about 10 weeks; at 100 ppm all termites died in the boxes at 8 weeks, and at 200 ppm all termites died in all tested boxes at 8 weeks. All termites in the treatments were dead by week 12.

termites [4] = details: Grace et al. 1993; cited from earlier work

## O=C1c2cccc3cccc(c23)C(=O)N1[O-].[Na+] [NHA-sodium salt, N-hydroxynaphthyalimide Sodium Salt]
Formosan termites; 250 ppm in bait matrix, 1 Month of feeding
  Colonies Alive: 4
Formosan termites; 250 ppm in bait matrix, 2 Months of feeding
  Colonies Alive: 3
Formosan termites; 250 ppm in bait matrix, 2½ Months of feeding
  Colonies Alive: 0
Formosan termites; 500 ppm in bait matrix, 1 Month of feeding
  Colonies Alive: 3
Formosan termites; 500 ppm in bait matrix, 2 Months of feeding
  Colonies Alive: 1
Formosan termites; 500 ppm in bait matrix, 2½ Months of feeding
  Colonies Alive: 0
C. formosanus [1]; 500 ppm
  repellence to the termites: without any signs of repellence
C. formosanus [1]; 500 ppm, preliminary results, dose range 50, 250, 500 ppm
  time to formosan termite mortality: within about two months
C. formosanus [1]; in vivo
  dose at which repellence was observed: higher than 1500 ppm

## O=C(NC(=O)c1c(F)cccc1F)Nc1ccc(Cl)cc1 [diflubenzuron]
C. formosanus [2]
  suppressing colonies: particularly effective
Reticulitermes spp.
  suppressing colonies: particularly effective

## O=C(NC(=O)c1c(F)cccc1F)Nc1cc(Cl)c(OC(F)(F)C(F)F)c(Cl)c1 [hexaflumuron]
C. formosanus [2]
  suppressing colonies: particularly effective
Reticulitermes spp.
  suppressing colonies: particularly effective

## Copper naphthenate
Termites [3]; 50, 100 and 200 ppm
  week by which all termites in the treatments were dead: ≤ 12 week
Termites [3]; 50 ppm, 8 wks after treatment
  Percent colonies of 2500 termite workers alive: 50%
Termites [3]; 50 ppm, 10 wks after treatment
  Percent colonies of 2500 termite workers alive: 25%
Termites [3]; 50 ppm, 12 wks after treatment
  Percent colonies of 2500 termite workers alive: 0%
Termites [3]; 50 ppm, at about 8 weeks
  boxes in which all termites died: 50%
Termites [3]; 50 ppm, at about 10 weeks
  boxes in which all termites died: 75%
Termites [3]; 100 ppm
  time at which all termites died in the boxes: 8 weeks
Termites [3]; 100 ppm, 8 wks after treatment
  Percent colonies of 2500 termite workers alive: 0%
Termites [3]; 100 ppm, 10 wks after treatment
  Percent colonies of 2500 termite workers alive: 0%
Termites [3]; 100 ppm, 12 wks after treatment
  Percent colonies of 2500 termite workers alive: 0%
Termites [3]; 200 ppm
  time at which all termites died in all tested boxes: 8 weeks
Termites [3]; 200 ppm dose
  acceptance of the bait and time to kill: great variability
Termites [3]; 200 ppm, 8 wks after treatment
  Percent colonies of 2500 termite workers alive: 0%
Termites [3]; 200 ppm, 10 wks after treatment
  Percent colonies of 2500 termite workers alive: 0%
Termites [3]; 200 ppm, 12 wks after treatment
  Percent colonies of 2500 termite workers alive: 0%
Termites [4]
  repellence to termites: highly repellent
  toxicity to termites: toxic
